Test results taken from PubChem BioAssay AID2060899 (Molecular Pharmacology Branch, DTP, NCI, 2025).
Where “and” joins values, the source holds several entries; their conditions need not be identical. Equal values may be shown once.

System: 565726-208-R1-J5-PDC complex spheroids, growth inhibition
Assay: Anticancer human tumor 565726-208-R1-J5-PDC patient-derived pancreatic adenocarcinoma cell line growth inhibition [RAS]
Conditions: for viability, T/C: stronger effect = lower value
From the text: RAS pathway inhibitors in Combinations in Complex Spheroids
A high-throughput screen of multi-cell type tumor spheroids was designed to identify active combinations of RAS pathway inhibitors and targeted small molecules. Complex spheroids include a stromal component modeled by human endothelial cells (HUVEC) and fibroblasts modeled by human mesenchymal stem cells (MSCs). The concentration ranges selected for each drug and investigational agent were based upon clinically achievable concentrations if the clinical Cmax of the agent was known.
Compounds. The drugs and investigational agents: abemaciclib (NSC768073), cobimetinib (NSC768068), divarasib (GDC6063, NSC841802), docetaxel (NSC628503), GDC-1971 (RLY-1971, NSC841576), gemcitabine (NSC613327), inavolisib (NSC800729), ipatasertib (NSC767898), KB-0742 (NSC834161), MRTX-1133 (NSC836407), osimertinib (NSC779217), RMC-4630 (NSC839698), RMC-6236 (NSC851965), RMC-6291 (NSC852671), Ro-3306 (NSC812927), sapanisertib (NSC764658), SN-38 (NSC673596), staurosporine (NSC755774), SY5609 (NSC837396), and tovorafenib (DAY101, NSC766906), were obtained from the National Cancer Institute (NCI) Developmental Therapeutics Program Chemical Repository. The FDA-approved anticancer drug set is available from the NCI Developmental Therapeutics Program. […] The stock solutions were prepared in dimethyl sulfoxide (DMSO, Sigma-Aldrich, St. Louis, MO, cat. D2650) at 800-fold the tested concentration and stored at -70 degrees C prior to their use. All drugs and investigational agents were tested over a range starting from a high concentration at or near the clinical Cmax and decreasing in half-log increments. If the clinical Cmax for an agent had not been determined, the highest concentration tested was 10 microM.
Cell Culture. All cells were maintained in an incubator at 37 degrees C and 5% CO2 with 95% humidity. The PDC lines were cultured according to standard operating procedures established by the NCI PDMR. All PDCs were thawed and cultured in Matrigel-coated flasks prepared with a working solution of 1X Ham's F-12 nutrient mix, without supplementation (Invitrogen, Waltham, MA, cat. 11765054), 100 U/mL penicillin-streptomycin (Invitrogen, cat. 15140122), and 2.5% Matrigel (Corning Inc., Corning, NY, cat. 354248) for the first three passages. The 362531-283-R-J2-PDC and 782815-120-R-J1-PDC lines were cultured in 6C/Colon 1B media, which includes advanced DMEM/F-12 (Thermo Fisher Scientific, cat. 12634028), 10 mM HEPES (Thermo Fisher Scientific, cat. 15630080), 1X GlutaMAX supplement (Thermo Fisher Scientific, cat. 35050061), 0.1 mg/mL primocin (InvivoGen, San Diego, CA, cat. ant-pm-2), 10% defined fetal bovine serum, heat inactivated (HyClone Laboratories Inc., Logan, UT, cat. SH30070.03HI), 50% L-WRN conditioned media (ATCC, cat. CRL-3276), 1.25 mM N-Acetyl-L-cysteine (Sigma-Aldrich, cat. A9165), 10 mM nicotinamide (Sigma-Aldrich, cat. N0636), 1X B-27 supplement (Thermo Fisher Scientific, cat. 17504044), 1X N-2 supplement (Thermo Fisher Scientific, cat. 17502048), 50 ng/mL human EGF (Thermo Fisher Scientific, cat. PHG0311), and 10 microM Y-27632 dihydrochloride (Tocris Bioscience, cat. 1254). The K12877-001-R-J1-PDC line was cultured in 6I media, which includes all 6C/Colon 1B media plus 10 ng/mL human FGF-10 (PeproTech, cat. 100-26), 1 ng/mL human FGF-2 (PeproTech, cat. 100-18B), 1 µM prostaglandin E2 (Tocris Bioscience, cat. 2296), […] hydrocortisone (Sigma-Aldrich, cat. H4001), and […] bovine insulin (Sigma-Aldrich, cat. I6634). The K86415-001-R-J1-PDC line was cultured in 6D media, which includes all 6C/Colon 1B media components minus the L-WRN conditioned media. The 485176-168-R4-J1-PDC was cultured in PANC media, which includes all 6C/Colon 1B media plus 100 ng/mL human FGF-10 (PeproTech, cat. 100-26), 500 nM SB-431542 (Selleckchem, cat. S1067), and 10 nM gastrin (Tocris Bioscience, cat. 3006). […]

[1] = compound alone, run of 07/15/2024
[2] = compound alone, run of 07/09/2024
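Also: spheroids exposed to compounds for seven days before readout.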
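For viability, T/C in this document: 100% = DMSO vehicle control viability.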

Row | IC50 (curve of compound) | Compound | viability, T/C (compound 0.0316 µM) | viability, T/C (compound 0.1 µM) | viability, T/C (compound 0.316 µM) | viability, T/C (compound 1 µM) | other results
1 |  | C#Cc1c(F)ccc2cc(O)cc(-c3ncc4c(N5CC6CCC(C5)N6)nc(OCC56CCCN5CC(F)C6)nc4c3F)c12 (stereo not given) | 104% [middle of 8 runs] | 101% [middle of 8 runs] | 94.6% [middle of 8 runs] | 84.3% [middle of 8 runs] | viability, T/C (compound 3.16 µM): 78.7% [middle of 8 runs]; IC50 [1]: > 10 µM
2 | > 1 µM | C=CC(=O)N1CCN(c2nc(OCC3CCCN3C)nc3c(F)c(-c4nc(N)cc(C)c4C(F)(F)F)c(Cl)cc23)C(C)C1 (stereo not given) |  | 104% [middle of 12 runs] |  |  | IC50 [1]: > 1 µM
3 | > 1 µM | C=CC(=O)Nc1cc(Nc2nccc(-c3cn(C)c4ccccc34)n2)c(OC)cc1N(C)CCN(C)C | 92.9% [middle of 4 runs] | 85.7% [middle of 4 runs] |  |  | 
4 | < 0.0316 µM | CC(=O)OC12COC1CC(O)C1(C)C(=O)C(O)C3=C(C)C(OC(=O)C(O)C(NC(=O)OC(C)(C)C)c4ccccc4)CC(O)(C(OC(=O)c4ccccc4)C21)C3(C)C (stereo not given) | 20.4% [middle of 4 runs] | 20.9% [middle of 4 runs] | 19.3% [middle of 4 runs] | 19.9% [middle of 4 runs] | viability, T/C (compound 3.16 µM): 24.2% [middle of 4 runs]; viability, T/C (compound 10 µM): 27% [middle of 4 runs]
5 | > 10 µM | CC(C)NCC(C(=O)N1CCN(c2ncnc3c2C(C)CC3O)CC1)c1ccc(Cl)cc1 (stereo not given) | 97.9% [middle of 4 runs] | 100% [middle of 4 runs] |  | 88.7% [middle of 4 runs] | 
6 |  | CC(C)n1nc(-c2ccc3oc(N)nc3c2)c2c(N)ncnc21 | 54.3% [middle of 4 runs] |  |  |  | viability, T/C (compound 0.00316 µM): 84% [middle of 4 runs]; viability, T/C (compound 0.01 µM): 66% [middle of 4 runs]
7 | > 10 µM and 9.95 µM | CC(Nc1ccc2c(c1)OCCn1cc(N3C(=O)OCC3C(F)F)nc1-2)C(N)=O (stereo not given) | 94.9% [middle of 4 runs] |  | 79.3% [middle of 4 runs] | 72% [middle of 4 runs] | 
8 | 3.92 nM [middle of 4 runs] | CC1(C)CCC(Nc2ncc(C(F)(F)F)c(-c3c[nH]c4c(P(C)(C)=O)c(C#N)ccc34)n2)CN1 (stereo not given) |  |  |  |  | viability, T/C (compound 0.003 µM): 51.3% [middle of 4 runs]; viability, T/C (compound 0.00949 µM): 37.9% [middle of 4 runs]; viability, T/C (compound 0.03 µM): 31.7% [middle of 4 runs]; viability, T/C (compound 0.0949 µM): 36.9% [middle of 4 runs]; viability, T/C (compound 0.3 µM): 34.4% [middle of 4 runs]
9 | 4.5 µM [middle of 4 runs] | CC1(O)CCCC1n1c(=O)c(C(F)F)cc2cnc(NC3CCN(S(C)(=O)=O)CC3)nc21 (stereo not given) | 86.8% [middle of 4 runs] | 71.2% [middle of 4 runs] |  | 71.2% [middle of 4 runs] | viability, T/C (compound 10 µM): 5.9% [middle of 4 runs]
10 | 1.57 µM [middle of 4 runs] | CCC(CC)c1cc(NC2CCC(N)C2)n2nccc2n1 (stereo not given) |  |  | 105% [middle of 4 runs] | 81.9% [middle of 4 runs] | viability, T/C (compound 3.16 µM): 1.5% [middle of 4 runs]; viability, T/C (compound 10 µM): 1.88% [middle of 4 runs]
11 | > 1 µM | CCN1CCN(Cc2ccc(Nc3ncc(F)c(-c4cc(F)c5nc(C)n(C(C)C)c5c4)n3)nc2)CC1 | 81.5% [middle of 4 runs] | 77.8% [middle of 4 runs] |  |  | viability, T/C (compound 0.00316 µM): 96.8% [middle of 4 runs]
12 | 2.78 nM [middle of 4 runs] | CCc1c2c(nc3ccc(O)cc13)-c1cc3c(c(=O)n1C2)COC(=O)[C@]3(O)CC |  |  |  |  | viability, T/C (compound 0.000949 µM): 77.2% [middle of 4 runs]; viability, T/C (compound 0.00949 µM): 34.4% [middle of 4 runs]; viability, T/C (compound 0.03 µM): 19.3% [middle of 4 runs]; viability, T/C (compound 0.0949 µM): 12.7% [middle of 4 runs]; viability, T/C (compound 0.3 µM): 7.31% [middle of 4 runs]
13 |  | CCn1c(-c2cc(N3CCN(C)CC3)cnc2C(C)OC)c2c3cc(ccc31)-c1csc(n1)CC(NC(=O)C1CC1C)C(=O)N1CCCC(N1)C(=O)OCC(C)(C)C2 (stereo not given) |  |  |  |  | viability, T/C (compound 0.000949 µM): 65% [middle of 8 runs]; viability, T/C (compound 0.003 µM): 55.2% [middle of 8 runs]; viability, T/C (compound 0.00949 µM): 43.7% [middle of 8 runs]; viability, T/C (compound 0.03 µM): 33.3% [middle of 7 runs]; viability, T/C (compound 0.0949 µM): 27.4% [middle of 7 runs]; viability, T/C (compound 0.3 µM): 24.9% [middle of 8 runs]; IC50 [2]: 4 nM [middle of 8 runs]
14 |  | CCn1c(-c2cccnc2C(C)OC)c2c3cc(ccc31)N1CCOC(CC(NC(=O)C(C(C)C)N(C)C(=O)C3(F)CCN(C(=O)C#CC(C)(C)N(C)C)CC3)C(=O)N3CCCC(N3)C(=O)OCC(C)(C)C2)C1 (stereo not given) |  |  |  |  | viability, T/C (compound 0.000949 µM): 102% [middle of 8 runs]; viability, T/C (compound 0.003 µM): 99.7% [middle of 8 runs]; viability, T/C (compound 0.00949 µM): 104% [middle of 8 runs]; viability, T/C (compound 0.03 µM): 103% [middle of 8 runs]; viability, T/C (compound 0.0949 µM): 103% [middle of 8 runs]; viability, T/C (compound 0.3 µM): 90% [middle of 8 runs]; IC50 [2]: > 0.3 µM
15 | > 10 µM | C[C@@H](NC(=O)c1ncnc(N)c1Cl)c1ncc(C(=O)Nc2cc(C(F)(F)F)c(Cl)cn2)s1 | 116% [middle of 4 runs] |  | 101% [middle of 4 runs] | 100% (2×) and 109% and 117% | viability, T/C (compound 3.16 µM): 106% [middle of 4 runs]
16 | > 10 µM | Cc1nc(N2CCC3(CC2)COC(C)C3N)c(CO)nc1Sc1ccnc(N)c1Cl (stereo not given) | 106% [middle of 4 runs] |  | 85.7% [middle of 4 runs] | 81.1% [middle of 4 runs] | 
17 | > 10 µM | NC1c2ccccc2OC12CCN(c1cnc3c(N4CCCc5ncccc54)n[nH]c3n1)CC2 (stereo not given) | 82.2% [middle of 4 runs] |  | 72.5% [middle of 4 runs] | 66% [middle of 4 runs] | 
18 |  | Nc1ccn(C2OC(CO)C(O)C2(F)F)c(=O)n1 (stereo not given) | 70.9% [middle of 4 runs] | 62.3% [middle of 4 runs] |  | 38.8% [middle of 4 runs] | viability, T/C (compound 0.00316 µM): 108% [middle of 4 runs]
19 |  | O=C(c1ccc(F)c(F)c1Nc1ccc(I)cc1F)N1CC(O)([C@@H]2CCCCN2)C1 | 69.5% [middle of 4 runs] | 62.4% [middle of 4 runs] |  | 33.5% [middle of 4 runs] | 
